Laboratory results from ChEMBL document CHEMBL3880422, “C-terminal modified oxamyl dipeptides as inhibitors of the ICE/ced-3 family of cysteine proteases” (2007).
Where a SMILES comes first, the peptide text is derived from it. The star is where a group is joined. Cbz = O=C(OCc1ccccc1)*; CH2F = FC*

Columns and labels:
Caspase-1 (Mus musculus) = target: T1, Caspase-1 (Mus musculus) (UniProt P29452); experiment: (§1) Inhibition of mouse recombinant ICE assessed as ratio of irreversible rate constant K3 to dissociation constant of the reversible binding step Ki pre-incubated for 60 mins with Acetyl-Tyr-Val-Ala-Asp-amino-4-methylcoumarin substrate followed by enzyme addition by fluorescence based assay
T1 sequence (whole entry): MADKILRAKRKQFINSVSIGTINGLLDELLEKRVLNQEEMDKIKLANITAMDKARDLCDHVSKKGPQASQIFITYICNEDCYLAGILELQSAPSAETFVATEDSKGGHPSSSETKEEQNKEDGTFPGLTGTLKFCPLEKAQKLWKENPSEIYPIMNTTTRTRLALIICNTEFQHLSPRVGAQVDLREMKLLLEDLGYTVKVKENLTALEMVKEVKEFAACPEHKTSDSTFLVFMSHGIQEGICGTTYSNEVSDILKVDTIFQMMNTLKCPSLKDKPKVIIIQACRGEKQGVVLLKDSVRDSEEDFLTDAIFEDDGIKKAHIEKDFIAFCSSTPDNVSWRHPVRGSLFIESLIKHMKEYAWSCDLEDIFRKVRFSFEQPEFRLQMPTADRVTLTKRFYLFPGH

Caspase-3 (Homo sapiens) = target: T2, Caspase-3 (Homo sapiens) (UniProt P42574); experiment: as §1, with “of” for “of mouse”, “CPP32 (unknown origin)” for “ICE”
T2 sequence (whole entry): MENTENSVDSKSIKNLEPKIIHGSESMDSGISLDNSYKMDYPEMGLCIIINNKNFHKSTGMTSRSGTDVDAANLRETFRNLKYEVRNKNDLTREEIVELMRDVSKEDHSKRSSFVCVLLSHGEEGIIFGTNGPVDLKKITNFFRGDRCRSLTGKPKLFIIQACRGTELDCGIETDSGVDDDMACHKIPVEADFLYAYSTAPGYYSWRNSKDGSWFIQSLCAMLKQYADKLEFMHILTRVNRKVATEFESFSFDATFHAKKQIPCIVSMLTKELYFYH

Caspase-6 (Homo sapiens) = target: T3, Caspase-6 (Homo sapiens) (UniProt P55212); experiment: Inhibition of recombinant MCH2 (unknown origin) assessed as ratio of irreversible rate constant K3 to dissociation constant of the reversible binding step Ki pre-incubated for 60 mins with Acetyl-Tyr-Val-Ala-Asp-amino-4-methylcoumarin substrate followed by enzyme addition by fluorescence based assay
T3 sequence (whole entry): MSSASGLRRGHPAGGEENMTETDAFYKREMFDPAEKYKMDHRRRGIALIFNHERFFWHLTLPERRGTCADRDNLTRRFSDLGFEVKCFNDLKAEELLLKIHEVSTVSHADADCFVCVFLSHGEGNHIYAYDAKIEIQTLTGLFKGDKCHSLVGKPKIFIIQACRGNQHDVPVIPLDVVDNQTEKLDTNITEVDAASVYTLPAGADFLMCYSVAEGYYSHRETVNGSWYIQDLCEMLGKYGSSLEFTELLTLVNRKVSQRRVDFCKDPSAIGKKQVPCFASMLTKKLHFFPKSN

Caspase-8 (Homo sapiens) = Caspase-8 (Homo sapiens) (UniProt Q14790); experiment: Inhibition of recombinant MCH5 (unknown origin) assessed as ratio of irreversible rate constant K3 to dissociation constant of the reversible binding step Ki pre-incubated for 60 mins with Acetyl-Tyr-Val-Ala-Asp-amino-4-methylcoumarin substrate followed by enzyme addition by fluorescence based assay
Caspase-8 (Homo sapiens), sequence (Q14790 217-374 limits assumed): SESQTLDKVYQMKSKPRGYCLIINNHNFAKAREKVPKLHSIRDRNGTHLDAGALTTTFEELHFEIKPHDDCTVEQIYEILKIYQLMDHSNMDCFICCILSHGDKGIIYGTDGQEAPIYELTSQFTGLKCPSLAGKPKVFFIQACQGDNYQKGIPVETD
Caspase-8 (Homo sapiens), sequence (Q14790 385-479 limits assumed): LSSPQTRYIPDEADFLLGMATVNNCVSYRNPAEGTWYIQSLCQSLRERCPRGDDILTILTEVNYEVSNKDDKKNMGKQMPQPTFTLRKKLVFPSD

Row | Ratio (Caspase-1 (Mus musculus)) | Ratio (Caspase-3 (Homo sapiens)) | Ratio (Caspase-6 (Homo sapiens)) | Ratio (Caspase-8 (Homo sapiens)) | SMILES
1 | 201000 M⁻¹ s⁻¹ | 5380 M⁻¹ s⁻¹ | 1430 M⁻¹ s⁻¹ | 48600 M⁻¹ s⁻¹ | CC(C)[C@H](NC(=O)C(=O)NC(c1ccccc1)c1ccccc1)C(=O)N[C@@H](CC(=O)O)C(=O)COc1c(F)c(F)cc(F)c1F
2 | 2.17e+06 M⁻¹ s⁻¹ | 413000 M⁻¹ s⁻¹ | 199000 M⁻¹ s⁻¹ | 1.16e+06 M⁻¹ s⁻¹ | CC(C)[C@H](NC(=O)C(=O)Nc1cccc2ccccc12)C(=O)NC(CC(=O)O)C(=O)CF (mixture of isomers)
3 | 442000 M⁻¹ s⁻¹ | 67700 M⁻¹ s⁻¹ | 54900 M⁻¹ s⁻¹ | 119000 M⁻¹ s⁻¹ | C[C@H](NC(=O)C(=O)Nc1ccccc1C(C)(C)C)C(=O)N[C@@H](CC(=O)O)C(=O)COc1ccccc1F
4 | 2.05e+06 M⁻¹ s⁻¹ | 27700 M⁻¹ s⁻¹ | 112000 M⁻¹ s⁻¹ | 1.16e+06 M⁻¹ s⁻¹ | CC(C)[C@H](NC(=O)C(=O)Nc1ccccc1C(C)(C)C)C(=O)N[C@@H](CC(=O)O)C(=O)COc1c(F)c(F)cc(F)c1F
5 | 289000 M⁻¹ s⁻¹ | 189000 M⁻¹ s⁻¹ | 146000 M⁻¹ s⁻¹ | 306000 M⁻¹ s⁻¹ | C[C@H](NC(=O)C(=O)Nc1cc(C(C)(C)C)ccc1C(C)(C)C)C(=O)N[C@@H](CC(=O)O)C(=O)COC(=O)c1c(Cl)cccc1Cl
6 | 11700 M⁻¹ s⁻¹ | 22700 M⁻¹ s⁻¹ | 18600 M⁻¹ s⁻¹ | 18700 M⁻¹ s⁻¹ | C[C@H](NC(=O)C(=O)Nc1ccc(F)cc1)C(=O)N[C@@H](CC(=O)O)C(=O)COC(=O)c1c(Cl)cccc1Cl
7 | 214000 M⁻¹ s⁻¹ | 12200 M⁻¹ s⁻¹ | 2950 M⁻¹ s⁻¹ | 83300 M⁻¹ s⁻¹ | CC(C)[C@H](NC(=O)OCc1ccccc1)C(=O)N[C@@H](C)C(=O)N[C@@H](CC(=O)O)C(=O)CF (Cbz-Val-Ala-Asp-CH2F)
8 | 22000 M⁻¹ s⁻¹ | 118000 M⁻¹ s⁻¹ | 64100 M⁻¹ s⁻¹ | 46200 M⁻¹ s⁻¹ | C[C@H](NC(=O)C(=O)Nc1cccc2c1CCCC2)C(=O)N[C@@H](CC(=O)O)C(=O)COc1c(F)c(F)cc(F)c1F
9 | 767000 M⁻¹ s⁻¹ | 70600 M⁻¹ s⁻¹ | 8230 M⁻¹ s⁻¹ | 51300 M⁻¹ s⁻¹ | CC(C)[C@H](NC(=O)C(=O)Nc1cc(C(C)(C)C)ccc1C(C)(C)C)C(=O)N[C@@H](CC(=O)O)C(=O)COc1c(F)c(F)cc(F)c1F
10 | 1.04e+06 M⁻¹ s⁻¹ | 57400 M⁻¹ s⁻¹ | 261000 M⁻¹ s⁻¹ | 41000 M⁻¹ s⁻¹ | CC(C)[C@H](NC(=O)C(=O)Nc1ccccc1C(F)(F)F)C(=O)N[C@@H](CC(=O)O)C(=O)COc1c(F)c(F)cc(F)c1F
11 | 906000 M⁻¹ s⁻¹ | 36300 M⁻¹ s⁻¹ | 121000 M⁻¹ s⁻¹ | 338000 M⁻¹ s⁻¹ | CC(C)[C@H](NC(=O)C(=O)Nc1ccc(F)cc1)C(=O)N[C@@H](CC(=O)O)C(=O)COc1c(F)c(F)cc(F)c1F
12 | 27400 M⁻¹ s⁻¹ | 3130 M⁻¹ s⁻¹ | 1840 M⁻¹ s⁻¹ | 20800 M⁻¹ s⁻¹ | CC(C)[C@H](NC(=O)C(=O)Nc1nc2ccccc2[nH]1)C(=O)N[C@@H](CC(=O)O)C(=O)COc1c(F)c(F)cc(F)c1F
13 | 344000 M⁻¹ s⁻¹ | 54800 M⁻¹ s⁻¹ | 25300 M⁻¹ s⁻¹ | 105000 M⁻¹ s⁻¹ | CC(C)[C@H](NC(=O)C(=O)Nc1ccccc1Cc1ccccc1)C(=O)N[C@@H](CC(=O)O)C(=O)COc1c(F)c(F)cc(F)c1F
14 | 1.8e+06 M⁻¹ s⁻¹ | 21000 M⁻¹ s⁻¹ | 16600 M⁻¹ s⁻¹ | 472000 M⁻¹ s⁻¹ | CC(C)[C@H](NC(=O)C(=O)NCc1ccccc1)C(=O)N[C@@H](CC(=O)O)C(=O)COc1c(F)c(F)cc(F)c1F
15 | 127000 M⁻¹ s⁻¹ | 25400 M⁻¹ s⁻¹ | 31700 M⁻¹ s⁻¹ | 65300 M⁻¹ s⁻¹ | CC(C)[C@H](NC(=O)C(=O)Nc1ccccc1-c1ccccc1)C(=O)N[C@@H](CC(=O)O)C(=O)COc1c(F)c(F)cc(F)c1F
16 | 1.84e+06 M⁻¹ s⁻¹ | 286000 M⁻¹ s⁻¹ | 69100 M⁻¹ s⁻¹ | 625000 M⁻¹ s⁻¹ | CC(C)[C@H](NC(=O)C(=O)Nc1cccc2ccccc12)C(=O)N[C@@H](CC(=O)O)C(=O)COc1ccc(O)cc1
17 | 195000 M⁻¹ s⁻¹ | 221000 M⁻¹ s⁻¹ | 192000 M⁻¹ s⁻¹ | 248000 M⁻¹ s⁻¹ | C[C@H](NC(=O)C(=O)Nc1cc(C(C)(C)C)ccc1C(C)(C)C)C(=O)N[C@@H](CC(=O)O)C(=O)COc1c(F)c(F)cc(F)c1F
18 | 1.23e+06 M⁻¹ s⁻¹ | 169000 M⁻¹ s⁻¹ | 131000 M⁻¹ s⁻¹ | 667000 M⁻¹ s⁻¹ | C[C@H](NC(=O)C(=O)NCCc1ccccc1)C(=O)N[C@@H](CC(=O)O)C(=O)COP(=O)(c1ccccc1)c1ccccc1
19 | 278000 to 1.94e+06 M⁻¹ s⁻¹ | 323000 to 842000 M⁻¹ s⁻¹ | 281000 to 745000 M⁻¹ s⁻¹ | 396000 to 1.63e+06 M⁻¹ s⁻¹ | C[C@H](NC(=O)C(=O)Nc1ccccc1Cl)C(=O)N[C@@H](CC(=O)O)C(=O)COC(=O)c1c(Cl)cccc1Cl
20 | 912 M⁻¹ s⁻¹ | 511 M⁻¹ s⁻¹ | 5580 M⁻¹ s⁻¹ | 1140 M⁻¹ s⁻¹ | CC(C)[C@H](NC(=O)C(=O)Nc1ccncc1)C(=O)N[C@@H](CC(=O)O)C(=O)COc1c(F)c(F)cc(F)c1F
21 | 59100 M⁻¹ s⁻¹ | 600000 M⁻¹ s⁻¹ | 244000 M⁻¹ s⁻¹ | 203000 M⁻¹ s⁻¹ | C[C@H](NC(=O)C(=O)NCc1ccccc1)C(=O)N[C@@H](CC(=O)O)C(=O)COC(=O)c1c(Cl)cccc1Cl
22 | 259000 M⁻¹ s⁻¹ | 388000 M⁻¹ s⁻¹ | 219000 M⁻¹ s⁻¹ | 125000 M⁻¹ s⁻¹ | C[C@H](NC(=O)C(=O)Nc1ccccc1-c1ccccc1)C(=O)N[C@@H](CC(=O)O)C(=O)COC(=O)c1c(Cl)cccc1Cl
23 | 43300 to 537000 M⁻¹ s⁻¹ | 62900 to 142000 M⁻¹ s⁻¹ | 6960 to 191000 M⁻¹ s⁻¹ | 30200 to 39100 M⁻¹ s⁻¹ | C[C@H](NC(=O)C(=O)Nc1ccccc1C(C)(C)C)C(=O)N[C@@H](CC(=O)O)C(=O)COC(=O)c1c(Cl)cccc1Cl
24 | 77100 M⁻¹ s⁻¹ | 13400 M⁻¹ s⁻¹ | 12600 M⁻¹ s⁻¹ | 16600 M⁻¹ s⁻¹ | CC(C)[C@H](NC(=O)C(=O)NCCc1ccccc1)C(=O)N[C@@H](CC(=O)O)C(=O)COc1c(F)c(F)cc(F)c1F
25 | 191000 M⁻¹ s⁻¹ | 245000 M⁻¹ s⁻¹ | 186000 M⁻¹ s⁻¹ | 82700 M⁻¹ s⁻¹ | C[C@H](NC(=O)C(=O)NCc1cccc2ccccc12)C(=O)N[C@@H](CC(=O)O)C(=O)COP(=O)(c1ccccc1)c1ccccc1

Row | SMILES | Ratio (Caspase-1 (Mus musculus)) | Ratio (Caspase-3 (Homo sapiens)) | Ratio (Caspase-6 (Homo sapiens)) | Ratio (Caspase-8 (Homo sapiens))
26 | C[C@H](NC(=O)C(=O)Nc1ccccc1Cl)C(=O)N[C@@H](CC(=O)O)C(=O)COP(=O)(c1ccccc1)c1ccccc1 | 103000 to 1.98e+06 M⁻¹ s⁻¹ | 162000 to 564000 M⁻¹ s⁻¹ | 247000 to 373000 M⁻¹ s⁻¹ | 179000 to 2.33e+06 M⁻¹ s⁻¹
27 | C[C@H](NC(=O)C(=O)Nc1cc(C(F)(F)F)ccc1N1CCCC1)C(=O)N[C@@H](CC(=O)O)C(=O)COP(=O)(c1ccccc1)c1ccccc1 | 1.5e+06 M⁻¹ s⁻¹ | 78600 M⁻¹ s⁻¹ | 202000 M⁻¹ s⁻¹ | 933000 M⁻¹ s⁻¹
28 | C[C@H](NC(=O)C(=O)Nc1ccccc1C(C)(C)C)C(=O)N[C@@H](CC(=O)O)C(=O)COP(=O)(c1ccccc1)c1ccccc1 | 159000 to 625000 M⁻¹ s⁻¹ | 327000 to 395000 M⁻¹ s⁻¹ | 275000 to 484000 M⁻¹ s⁻¹ | 282000 to 589000 M⁻¹ s⁻¹
29 | C[C@H](NC(=O)C(=O)Nc1ccc(F)cc1)C(=O)N[C@@H](CC(=O)O)C(=O)COP(=O)(c1ccccc1)c1ccccc1 | 956000 M⁻¹ s⁻¹ | 268000 M⁻¹ s⁻¹ | 424000 M⁻¹ s⁻¹ | 2.3e+06 M⁻¹ s⁻¹
